Patent publication US9428726B2, “Modified host cells with efflux pumps” (priority 2010, dated 2016)
Entries after “also recorded” stand apart in the source; their conditions may differ.

System: E. coli DH1 ΔacrAB
Conditions: for biofuel level that inhibited growth: added to pooled culture in M9 minimal medium, aimed at an inhibitory concentration that reduced growth by 25%; for outcome of efflux pump in competition: 2% geranyl acetate, serial dilution competition
Experimental: In order to screen the efflux pump library against a variety of biofuels we devised a competition-based strategy to select for pumps that improved biofuel tolerance (FIG. 1A). Cells containing plasmids with individual pumps were grown separately and then pooled so that all individual strains were represented equally. This pooled culture was then grown both with and without biofuel, and maintained through serial dilutions every 10-14 hours over a total of 96 hours. At each dilution time point, plasmids from each culture were isolated and a custom microarray was used to quantify the amount of each efflux pump plasmid present in the culture (Methods).
Pooled culture glycerol stocks were used to inoculate M9 minimal medium with 30 μg/ml kanamycin and 10 μM IPTG. The culture was then divided into tubes to a final volume of 5 ml and biofuel was added directly to the tubes. All conditions were prepared in triplicate. Cultures were grown at 37° C. with orbital shaking at 200 rpm for all experiments.
Every 10-14 hours the cultures were diluted 1:100 into 5 ml of fresh M9 minimal medium with kanamycin, IPTG, and biofuel (where applicable). For the time-course assay, cultures were spun down at the completion of a growth cycle and plasmids were isolated. For end point competition assays, plasmid was isolated from the culture after 72 hours of serial dilution.
Custom microarrays (NimbleGen, Roche, USA) were used to measure the relative quantities of the efflux pumps present in the plasmid DNA isolated from the competition cultures. Arrays were designed so that they contained probes for all HAE1 annotated efflux pumps from all sequenced bacterial genomes. 12×135K arrays were used to allow for 12 experiments per slide.
Plasmid DNA was labeled and hybridized following the protocol for NimbleGen Comparative Genomic Hybridization Microarrays with minor modifications (Supporting Methods). Data were normalized using the standard settings for RMA analysis in the NimbleScan software. Probe values were averaged using a custom Matlab script (Mathworks, Inc.). […] For the positive hybridization control, all library plasmids were prepared individually and combined in vitro in equal proportions. For the negative hybridization control, a plasmid with the same vector backbone as those in the library, but no efflux pump, was isolated from DH1 ΔacrAB. Both hybridization controls were labeled and hybridized to the array using the methods described above.
This required the use of a co-solvent in order to accurately pipette small volumes. In both cases dimethylformamide (DMF) was used as the co-solvent. […] Other biofuels were added directly without the use of a co-solvent.

| Molecule | biofuel level that inhibited growth | outcome of efflux pump in competition | other results |
| --- | --- | --- | --- |
| C=C(C)[C@H]1CC=C(C)CC1 [limonene] | 0.025 % v/v | – | – |
| CC1=CCC2CC1C2(C)C (stereo not drawn) [α-pinene] | 2 % v/v | – | – |
| CCCCCC(=O)OCC=C(C)CCC=C(C)CCC=C(C)C [farnesyl hexanoate] | 2.5 % v/v | – | – |
| CN(C)C=O [DMF, dimethylformamide] | – | – | toxicity limit to E. coli (co-solvent amount present in the culture): > 0.2% |
| YP_957870: Marinobacter aqueolei efflux pump, accession of inner membrane protein, SEQ ID NO:1 (protein, listed as Marinobacter aqueolei) MINFFISRPVFSWVLAIVAMLAGIMAIFVLPVQRYPSVAPPAVEIQADYPGASADTVSNTVVQVIEQEMTGLDNLLYMGSTADSSGHATVTLTFAAGTDPDIAQVQVQNKLKLAEPRLPEVVRQQGISVEKSSTSFLMVMAFVSTDGRLSKLDIADFISSELAEPIGRVTGIGSVQVFGSEYAMRIWLDPSALTNYGLTVADVSAAIEAQNAQVTAGQLGGLPAVEGQQLNATVTAQTLLTSTEEFRNILLKSMPDGSRVRLGDVARVELGGGAVQIDTFYDGEPAAGLGINLAPGANSLAVTEAVKARLQELEPYFPEGVEIRYPYQTAPFVEASIDAVVTTIIEAIALVVLVMLVFLQSWRATLIPAIAIPVVLLGTFAIMAAFGFSINMLTLFGLVLAIGLLVDDAIVVVENVERVMHEDGLSPMEATRKSMGQIASALIGIGVVLSAVFIPMAFFPGSTGAIYRQFSLSIAGAMVLSVLVALILSPMLCGRILKPTHERTLLQKLFGWFEAGLGRLTRGYVRLVGHTARHAWLYTLAFLGIVGLVAVLFVRLPGGFLPAEDQGFAVVQYQLPAGATQQRTIDTIQVIEDYFMDQDEVQGLFTIAGFSFAGRAQNAGLAFVNLKPWSERDPETQSADAIIQRANRALAGLVRDGRAFAFNLPPIPELGQALGFELRLQDRGAIGHEALMAAQGQLLQLAAESPVLTSVRPNGLADNPRYKVDIDYEKAQALGIEPSEISRLLSVTWGSQYVNDFLHEGRVKRVYVQGDAPFRMLPEDFEAWYLRAANGEMTPLSEVTNGRWEYGSPRLERFNGVPSRQIQGEPAPGYSTGEAMAEVERLIAQLPDGVAGAWSGLSYQERQAGAQASLLYALSALVVFLALAALYESWTIPISVMLAVPLGVLGAVLAAMVRGLPNDVFFQVGILTTVGVTARNAILLVEFARSLEDQGMKLIEATKEAARVRLRPILMTSVAFGMGVLPLAFASGAGATTRIAIGTAVLGGMISATILATFFIPLFYVVVRRITDFLSGSRDQDDSAAAAPGRANGGVADDR | – | increase survival | – |
| YP_692684: Alcanivorax borkumensis SK2 efflux pump, accession of inner membrane protein, SEQ ID NO:2 (protein, listed as Alcanivorax borkumensis) MARFFIDRPIFAWVIAIIMMMAGALAIYTLPIEQYPTVAPPQVSIAGNYPGASAKTVEDSVTQVIEQQMNGIDNLLYMSSSSDSFGNAAVNLTFAPGTDPDIAQVQVQNKLQLATPLLPQEVQQQGMQVTKSSDSFLMVAGFTSEDGSLSRADLADYVASNVQDPVSRVPGVGQIQLFGSPYAMRVWLDPNKLNKFDLTPQDVTQTIEVQNNQVASGQLGGAPAVEGQQLNATIIAQTRLEDVDQFENILLKVNPDGSRVFLKDVARVELAAQNYDVQGRYNGQPAAGLAISLATGANALDTAEALRARLAELQPYFPDKMEMVFPYDTTPFVSISIEEVVHTLFEAIILVFLVMYLFLQNFRATLIPTLAVPVVLLGTFAVLAAFGFSINTLTMFGMVLAIGLLVDDAIVVVENVERVMHEEGLPPKEATRKSMGQITGALVGIALVLSAVFVPMAFFPGSTGAIYRQFSITIVSAMVLSVLVALILTPALCATMLKAKDSEHQTDHGFFGWFNRTFDKSSRRYQGSVEKILGRRGRYLFIYVVIVGVLGFSFMRLPSSFLPEEDQGILFTLVTLPAGSTQEQTVKVLEKMEDYYLNEEASAVDGLFTVAGFSFTGRGQNAGMAFVNLKDWSERDLSVDGADNVVARAMGYFSTIREAMMFALNPPSIPELGNASGFDFQLLDQSGQGHEALIQARNQMLGMAAQDPRLAGVRPNGLEDSPQYQIDIDQQKAKALGLSISDINSTLQIAWGSSYVNNFVDRGRVKRVYVQADAPYRMLPENVNDWFVRNNQGKMVPFSTFATGHWTYGSPKLERYNGVSSVNIQGNAAPGYSTGDAMDAMEELSAKLPAGFGFEWTGMSYQERQSGDQAPALYVISLLVVFLCLAALYESWSIPFAVMLVVPLGILGAVLAATFRDLNNDVFFQVGLLTTIGLSAKNAILIAEFALELEQKGEHLLKATLEAVRMRLRPILMTSLAFMLGVTPLMISTGAGAGARNAIGTGVFGGMLTATVLAIFFIPLFYVAVRKLSGVPLDGKKKGKE | – | increase survival; also recorded: best pump | – |
| NP_745594: Pseudomonas putida KT2440 efflux pump, accession of inner membrane protein, SEQ ID NO:3 (protein, listed as Pseudomonas putida) MPQFFIDRPVFAWVVALFILLAGALAIPQLPVAQYPNVAPPQVEIYAVYPGASAATMDESVVSLIEQELNGADNLLYFESQSSLGSATITATFAPGTHPDLAQVDVQNRLKVVESRLPRPVTQQGLQVEKVSTGFLLLATLTSEDGKLDETALSDILARNVMDEIRRLKGVGKAQLYGSERAMRIWIDPRKLIGFNLTPNDVAEAIAAQNAQVAPGSIGDLPSRSTQEITANVVVKGQLSSPDEFAAIVLRANPDGSTVTIGDVARVEIGAQEYQYGTRLNGKPATAFSVQLSPGANAMETATLVRAKMQDLARYFPEGVKYDIPYDTSPFVKVSIEQVINTLFEAMLLVFAVMFLFLQNLRYTLIPTLVVPVALMGTFAVMLAMGFSVNVLTLFGMVLAIGILVDDAIVVVENVERIMAEEGLPPKQATRKAMGQISGAIVGITLVLVAVFLPMAFMQGSVGVIYQQFSLSMAVSILFSAFLALSLTPALCATLLKPVAKGEHHERKGFFGWFNRRFESMSNGYQRWVVQALKRSGRYLLVYAVLLAVLGYGFSQLPTAFLPTEDQGYTITDIQLPPGASRMRTEQVAAQIEAHNAEEPGVGNTTLILGFSFSGSGQNAALAFTTLKDWSERGADDSAQSIADRATMAFTQLKDAIAYSVLPPPIDGLGESTGFEFRLQDRGGMGHAELMAARDQLLESASKSKVLTNVREASLAESPQVQLEIDRRQANALGVSFADIGTVLDVAVGSSYVNDFPNQGRMQRVVVQAEGDQRSQVEDLLNIHVRNDSGKMVPLGAFVQARWVSGPVQLTRYNGYPAVSISGEPAAGYSSGEAMAEVERLVAQLPAGTGLEWTGLSLQERLSGSQAPLLMALSLLVVFLCLAALYESWSIPTAVLLVVPLGVLGAVLAVTLRGMPNDVFFKVGLITLIGLSAKNAILIIEFAKHLVDQGVDAADAAVQAARLRLRPIVMTSLAFILGVVPLAIASGASSASQQAIGTGVIGGMLSATLAVVFVPVFFVVVMRLSGRRQAHDSDGQPVPRES | – | survived the competition | – |
| NP_250708: Pseudomonas aeruginosa PA01 efflux pump, accession of inner membrane protein, SEQ ID NO:4 (protein, listed as Pseudomonas aeruginosa) MARFFIDRPVFAWVISLLIVLAGVLAIRFLPVAQYPDIAPPVVNVSASYPGASAKVVEEAVTAIIEREMNGAPGLLYTKATSSTGQASLTLTFRQGVNADLAAVEVQNRLKIVESRLPESVRRDGIYVEKAADSIQLIVTLTSSSGRYDAMELGEIASSNVLQALRRVEGVGKVETWGAEYAMRIWPDPAKLTSMNLSASDLVNAVRRHNARLTVGDIGNLGVPDSAPISATVKVDDTLVTPEQFGEIPLRIRADGGAIRLRDVARVEFGQSEYGFVSRVNQMTATGLAVKMAPGSNAVATAKRIRATLDELSRYFPEGVSYNIPYDTSAFVEISIRKVVSTLLEAMLLVFAVMYLFMQNFRATLIPTLVVPVALLGTFTVMLGLGFSINVLTMFGMVLAIGILVDDAIIVVENVERLMAEEGLSPHDATVKAMRQISGAIVGITVVLVSVFVPMAFFSGAVGNIYRQFAVTLAVSIGFSAFLALSLTPALCATLLRPIDADHHEKRGFFGWFNRAFLRLTGRYRNAVAGILARPIRWMLVYTLVIGVVALLFVRLPQAFLPEEDQGDFMIMVMQPEGTPMAETMANVGDVERYLAEHEPVAYAYAVGGFSLYGDGTSSAMIFATLKDWSERREASQHVGAIVERINQRFAGLPNRTVYAMNSPPLPDLGSTSGFDFRLQDRGGVGYEALVKARDQLLARAAEDPRLANVMFAGQGEAPQIRLDIDRRKAETLGVSMDEINTTLAVMFGSDYIGDFMHGSQVRKVVVQADGAKRLGIDDIGRLHVRNEQGEMVPLATFAKAAWTLGPPQLTRYNGYPSFNLEGQAAPGYSSGEAMQAMEQLMQGLPEGIAHEWSGQSFEERLSGAQAPALFALSVLIVFLALAALYESWSIPLAVILVVPLGVLGALLGVSLRGLPNDIYFKVGLITIIGLSAKNAILIIEVAKDHYQEGMSLLQATLEAARLRLRPIVMTSLAFGFGVVPLALSSGAGSGAQVAIGTGVLGGIVTATVLAVFLVPLFFLVVGRLFRLRKAPRTGNSPQIPTEQA | – | survived the competition | – |
